The nature of data set [1]: Ex vivo biodistribution in H460 tumor-bearing mice. To be noted: 2 h post injection. Here is the method: FIG. 20 illustrates biodistribution of [^18F]-C-SNAT4 in H460 tumor-bearing female nude mice. Mice were administered approximately 200 μCi [^18F]-C-SNAT4, animal were exsanguinated through the left ventricle and indicated tissues were excised at 2 hours post-injection in mice bearing naïve-tumor (black) or drug-treated tumor (gray). Data represent the mean±S.D. (n=4 animals per groups)
Biodistribution study: H460 or H1299 tumor-bearing female nude mice were administered approximately 7.4 MBq of [^18F]-C-SNAT4 via the tail vein (n=4-5 per group). Mice were maintained under anesthesia and warmed to 37° C. to replicate imaging conditions. At 90 min after [^18F]-C-SNAT4 injection, animals were sacrificed by exsanguination via cardiac puncture. For all animals, tumors were excised immediately upon death, weighed using pre-weighted tubes, and rapidly placed in 10% formalin (Fisher Scientific) for fixation. Tumor and tissue decay-corrected radioactivity was subsequently determined using a Cobra II Auto-Gamma counter (Packard Biosciences Co, UK.) Predefined 1.85 MBq (50 μCi) standards (50 μl) were also counter for data normalization to injected dose. Data were expressed as percent injected dose per gram of tissue (% ID/g).

The subject of a further data set is H460 cells. As to the kind of experiment: Radiotracer uptake in H460 cells. Format: cell-based, human. Here is the method: Temporal changes in cell-associated radioactivity in drug-treated cells or vehicle cells were measured with [18F]-C-SNAT4. Data are means±SD (n=3 per group). *, P<0.05; **, P<0.01; ***, P<0.005; *****, P<0.0001.
FIG. 22 illustrates that a mixture strategy enhances [^18F]-C-SNAT4 uptake in radiation (a single dose at 10 Gy) treated cells and vehicle human non-small cell lung cancer H460 cells. 40 μCi of mixture tracer [^18F]/[^19F]-C-SNAT4 (at ratio of 1:80 or 1:200) or 40 μCi [^18F]-C-SNAT4 were incubated in cells for 1 hour at 24 h post-IR treatment and radioactivity of [^18F] was measured using γ-counter. Data are means±SD (n=3 each group). *, P<0.05; **, P<0.01; ***, P<0.001.
Radiotracer uptake in cells: H460 and H1299 cells (2×10^5) were plated in 6-well cell culture plates over night before [^18F]-C-SNAT4 uptake analysis. […] After 24 h treatment, fresh, prewarmed RPMI Medium 1640 containing 1.48 MBq (40 μCi) [^18F]-C-SNAT4 was added to individual wells (1 ml/well; 13.3 pmol). At post 10, 30, 60 min, medium was removed, cells were lifted by trypsinization, and washed three-times with cold PBS. Radioactivity contained in cell pellets was measured using a gamma counter, with counts normalized to total protein concentration as determined by cell digestion using RIPA buffer followed by protein quantitation by the Bradford method. The final radiotracer [^18F]-C-SNAT4 uptake concentration was expressed as μM of % uptake/mg protein. Results were normalized to a vehicle control (PBS for [^18F]-C-SNAT4 experiments at different time-points) which was washed.

Data set [2] can be described thus: Blood half-life in healthy nude mice after intravenous injection. It counts as in vivo. The source says: FIG. 21 illustrates blood half-life in healthy nude mice after intravenous injection of [^18F]-C-SNAT4 (n=4).
The nature of data set [3]: Stability of [18F]-C-SNAT4 in mouse serum (HPLC). Particulars: 37° C., over 2 h incubation. It counts as in vitro ADME. Here is the method:
FIG. 1B illustrates the serum stability of [^18F]-C-SNAT4 in mouse serum. [^18F]-C-SNAT4 was incubated in serum at 37° C. and analyzed by HPLC.
At 24 h post treatment, mixture tracer of [^19F]-C-SNAT4 was injected with [^18F]-C-SNAT4 (mixture ratio at 1:200) through the tail vein for PET imaging (FIG. 24A-24C). For treated animal, tumor uptake of mixture tracer [^18F]/[^19F]-C-SNAT4 and [^18F]-C-SNAT4 were 2.9±0.3% ID/cc and 1.7±0.1% ID/cc, respectively at 85 min post injection. There was 1.7-fold increase of radioactivity in the mixture-treated mice. Overall, the uptake of [^18F]-C-SNAT4 was increased both in radiation and drug-treated tumors. In contrast, the tumor uptake of [^18F]/[^19F]-C-SNAT4 (ratio at 1:200) and [^18F]/[^19F]-C-SNAT4 (ratio at 1:80) in untreated tumor was 0.5±0.2% ID/cc and 0.3±0.2% ID/cc, respectively at 85 min after injection (FIG. 25A-25C), followed by a rapid signal decay back to baseline within a few minutes. There were no changes compared to the uptake of [^18F]-C-SNAT4 (0.4±0.1% ID/cc). […] The sample was centrifuged at 13,400 g for 10 min and […] of the resultant supernatant was diluted with […] of water and analyzed on HPLC. % intact tracer was calculated as %=(peak area for tracer/total peak area on the HPLC chromatogram)×100.

Experimental findings from US11679168B2, “Caspase-3-triggered molecular self-assembling PET probes and uses thereof” (The Board of Trustees of the Leland Stanford Junior …, priority 2018, dated 2023) are described below.

Consider `CCSSCC(NC(=O)C(CC(=O)O)NC(=O)C(NC(=O)C(CCC(=O)O)NC(=O)C(CC(=O)O)NC(C)=O)C(C)C)C(=O)NCC(=O)NC(Cc1cn(CCOCCOCCOCC[18F])nn1)C(=O)NCc1ccc(C(=O)NCCCOc2cnc(C#N)nc2)cc1` (stereo not shown) [[^18F]-C-SNAT4], for which the clearance route entry in data set [1] is listed as “predominantly renal clearance”. Moreover, the “uptake of high dose-treated cells relative to control cells” value with H460 cells (H460, 10 min post incubation) was 5.8 fold. Besides, the “uptake of low dose-treated cells relative to control cells” value in the data set on H460 cells (H460, 60 min post incubation) was determined as 2.4 fold. The cell uptake is reported as 3.9±0.4 % uptake/mg protein in the data set on H460 cells (IR-treated (10 Gy, 24 h) H460, hot tracer only, 1 h); 2.3 % radioactivity/mg protein in the data set with H460 cells (cisplatin high dose (13.5 μM, 24 h) treated H460, 10 min post incubation); 0.7±0.1 % uptake/mg protein in the data set with H460 cells (cisplatin low dose (4.5 μM, 24 h) treated H460, 10 min); 1.45±0.11 % radioactivity/mg protein with H460 cells (cisplatin low dose (4.5 μM, 24 h) treated H460, 60 min); 0.4±0.1 % uptake/mg protein in the data set on H460 cells (control H460 cells of high dose experiment, 10 min post incubation); 2.8±0.3 % uptake/mg protein with H460 cells (non-treated H460, hot tracer only). In addition, the cell uptake in the data set with H460 cells (untreated H460, 10 min) is 0.5±0.1 % radioactivity/mg protein; in the data set on H460 cells (untreated H460, 60 min), 0.4 % uptake/mg protein. Also, the “elimination from the blood” value in data set [2] (by 2 h after administration) was “nearly complete elimination”. In addition, in data set [2] (healthy nude mice, after 5 min), the peak blood concentration was found to be 15.21±2.66 % ID/g. Also, the blood life in data set [2] (healthy nude mice, i.v.) was 0.4 ± 0.1 h. Further, the blood half-life in data set [2] (healthy nude mice, i.v., n=4) stood at 21.6 ± 6.6 min. Also, the “percentage of [18F]-C-SNAT4 remained” value in data set [3] worked out at 77.2%.
